“Also recorded” adds a separate entry of the source.
Legend:
[1] = Iuliucci J D, et al., J Clin Pharmacol. 2001; cited from earlier work
[2] = system: iC9 (inducible caspase-9) safety switch; experiment: Rimiducid activation of the iC9 safety switch in CAR-T-treated tumor-bearing NSG mice; type: in vivo
Protocol: Animal Models. To evaluate anti-tumor activity of CD19-targeted CAR-T cells, NSG mice were engrafted with 5×10^5 CD19^+ Raji or Raji-EGFPluc tumor cells by intravenous (i.v.) tail vein injection. After 4 days, variable doses of non-transduced and gene-modified T cells were administered by i.v. (tail) injection. In some experiments, mice were rechallenged with Raji-EGFPluc […] as above. To test CD123-specific CAR-T activity, 1×10^6 CD123^+ THP-1-EGFPluc were engrafted by i.v. injection, followed by infusion of 2.5×10^6 unmodified or CAR-T cells 7 days post-tumor engraftment. iC9 titration experiments were performed by treating Raji tumor-bearing mice with 5×10^6 iC9-CD19.ζ-MC-modified T cells followed by injection of rimiducid 7 days after T cell injection at 0.00005, 0.0005, 0.005, 0.05, 0.5 and 5 mg/kg. To evaluate cytokine-related toxicities, neutralizing antibodies against hIL-6, hIFN-γ and TNF-α or an isotype control antibody (Bio X Cell, West Lebanon, N.H.) were administered by i.p. injection with 100 ug twice weekly. Additional experiments were performed using positively selected CD4^+ and CD8+ iC9-CD19.ζ-MC-modified T cells using CD4 or CD8 microbeads and MACS columns (Miltenyi Biotec). In vivo tumor growth and T cell proliferation was measured by bioluminescence imaging (BLI) by i.p. injection of 150 mg/kg D-luciferin (Perkin Elmer, Waltham, Mass.) and imaged using the IVIS imaging system (Perkin Elmer). Photon emission was analyzed by whole body region-of-interest (ROI) and signal measured as average radiance (photons/second/cm2/steradian).
While administration of high dose rimiducid (5 mg/kg) allowed the persistence of low level CAR-T cells, titration of rimiducid may permit the retention of more gene-modified T cells while mitigating cytokine-related toxicities. T cells were co-transduced with iC9-CD19.ζ-MC and EGFPluc and administered into Raji-bearing mice. Following the onset of cachexia (>10% body weight loss), a log-titration of rimiducid (5-5×10^−5 mg/kg) was administered as a single i.p. injection (FIG. 6A).
To further study cachexia associated with administration of iC9-CAR.-MC-modified T cells, the CD19-redirected construct was assayed against CD19^+ Daudi tumors in vivo, and neutralizing antibodies targeting human IL-6, IFN-γ and TNF-α, all of which are cross-reactive with murine cytokine receptors, were administered, and followed by monitoring of mouse weight loss. Here, tumor-bearing mice were treated with 5×10^6 iC9-CD19.ζ-MC transduced T cells and following >10% weight loss, intervention with either a single i.p. dose of rimiducid (0.5 mg/kg) or vehicle, or twice weekly injections of 100 ug per mouse anti-hIFN-γ, hIL-6 or hTNF-α was initiated (FIG. 9A). […] 5×10^6 iC9-CD19.ζ-MC-modified T cells were injected in to Daudi-bearing NSG mice and then treated with 0.5 mg/kg rimiducid after >10% weight loss or with i.p. injections with […] twice per week with an isotype antibody (control) or with neutralizing antibodies against human TNF-α, IL-6 and IFN-γ. Weight recovery was monitored until day 28. […] Thus, cytokine blockade provides a second effective mechanism to resolve the toxicity of this potent approach.

[3] = Raji model, 24 hours post-rimiducid

Q: For CC[C@H](C(=O)N1CCCC[C@H]1C(=O)O[C@H](CCc1ccc(OC)c(OC)c1)c1cccc(OCC(=O)NCCNC(=O)COc2cccc([C@@H](CCc3ccc(OC)c(OC)c3)OC(=O)[C@@H]3CCCCN3C(=O)[C@@H](CC)c3cc(OC)c(OC)c(OC)c3)c2)c1)c1cc(OC)c(OC)c(OC)c1 (relative stereo) [rimiducid, 2-Piperidinecarboxylic acid, 1-[(2S)-1-oxo-2-(3,4,5-trimethoxyphenyl)butyl]-, 1,2-ethanediylbis[imino(2-oxo-2,1-ethanediyl)oxy-3,1-phenylene[(1R)-3-(3,4-dimethoxyphenyl)propylidene]] ester, [2S-[1(R*),2R*[S*[S*[1(R*),2R*]]]]]-(9CI)], which “safety in healthy volunteers” value [1] is on record?
A: Its value is “proven safe”.

Q: And the “serum concentrations of hTNF-α” value ([2]; Daudi model, 0.5 mg/kg single i.p.)?
A: The value was “significantly reduced”.

Q: And the “CAR-T BLI after rimiducid titration” value ([2]; Raji model, 5-5×10^−5 mg/kg single i.p.)?
A: Its value is “reduced in a rimiducid dose-dependent manner”.

Q: What about the “serum cytokine levels (IL-6, IFN-γ, TNF-α) after rimiducid titration” value [2, 3] of the same compound?
A: Its value is “decreased serum cytokine levels”.

Q: What about the “serum levels of human cytokines (IFN-γ, IL-6) after rimiducid” value [2, 3] of the same compound?
A: Its value is “reverted to baseline levels”.

Q: And the “resolution of CAR-related toxicity (weight loss)” value ([2]; Raji model, iC9-CD19.ζ-MC T cells, single 5 mg/kg i.p., 5 mg/kg)?
A: The value was “promptly resolved toxicity; also recorded: successfully resolved”.

Q: And the resolution of cachexia ([2]; THP-1 model, iC9-CD123.ζ-MC T cells, without affecting tumor control)?
A: Its resolution of cachexia is “could be resolved”.

Source: US20200347148A1, “METHODS FOR ENHANCING AND MAINTAINING CAR-T CELL EFFICACY” (Bellicum Pharmaceuticals, Inc., priority 2017, published 2020)
